Data taken from paper PMC12409219, “Binding kinetics, bias, receptor internalization and effects on insulin secretion in vitro and in vivo of a novel GLP‐1R/GIPR dual agonist, HISHS‐2001” (Diabetes, Obesity & Metabolism, 2025).

Experiments:
human GLP-1R [1] = molecular target: T1, human GLP-1R (Homo sapiens, UniProt P43220); experiment: cAMP assay in HEK293-SNAP-GLP-1R cells (HTRF); assay type: cell-based; conditions: 30-min stimulation, n = 4, compared to native GLP-1(7-36)NH2
Method: HEK293 cells stably expressing human GLP‐1R or human GIPR, each self‐labelling protein tag (SNAP)‐tagged at their N‐termini (Cisbio), were cultured in Dulbecco's Modified Eagle's Medium (DMEM) medium (Gibco), 10% fetal bovine serum (FBS) and 1% penicillin/streptomycin.
HEK293‐SNAP‐GLP‐1R, HEK293‐SNAP‐GIPR or GLP‐1R‐β‐arrestin 2 cells were seeded overnight in 12‐well plates. On the day of the assay, cells were resuspended and dispensed into white, 96‐well plates containing the indicated concentration of agonist prepared in serum‐free medium containing 0.1% bovine serum albumin (BSA). After a 30‐min stimulation, cAMP detection reagents (cAMP dynamic kit, Cisbio) were added, and the plate was read 60 min later using an HTRF‐compatible plate reader. Data were analysed using three‐parameter logistic fitting (GraphPad Prism 9.0) and normalised to the maximal fitted response of the reference ligand (GLP‐1 or semaglutide) for presentation purposes.

human GLP-1R [2] = molecular target: T1, human GLP-1R; experiment: GLP-1R binding kinetics, TR-FRET competitive kinetics with exendin(9-39)-FITC; conditions: calculated from K on and K off; HISHS-2001 versus tirzepatide
Method: HEK293‐SNAP‐GLP‐1R cells were seeded overnight in 12‐well plates. On the day of the assay, cells were labelled with 40 nM Lumi4‐Tb (Cisbio) in complete medium for 30 min. After washing, labelled cells were preincubated for 20 min in Hanks' Balanced Salt Solution (HBSS) supplemented with 0.1% BSA and a metabolic inhibitor cocktail (10 mM NaN3, 20 mM 2‐deoxyglucose) to inhibit GLP‐1R endocytosis that would otherwise influence binding assays. Ligand binding was then detected in real time using time‐resolved Förster resonance energy transfer (TR‐FRET) using a Flexstation 3 plate reader (Molecular Devices). […] Plate reader settings included 340 nm λexcitation, 520 nm (cut‐off 495 nm) and 620 nm (cut‐off 570 nm) λemission, 400 μs delay and 1500 μs integration time. Association and dissociation rate constants were calculated using the kinetics of competitive binding algorithm in GraphPad Prism 9.0.

in vivo = experiment: in vivo; parameters: species or system mouse; conditions: sc; for Tmax / half-life: male, CD-1, mouse; for stability in the circulation: mouse
Method: Ninety animals were procured from LAR. Animals were acclimatized for 1 day. On Day 0, each animal was weighed. […] Animals were injected subcutaneously at 1 mg/kg for the corresponding agonist (dose volume: 10 mL/kg) using 26½ gauge needles. At 1, 2, 4, 8, 12, 24, 48, 72, and 96 h, ~500 μL of blood was collected by retro‐orbital plexus puncture using capillary micro‐centrifuge tubes containing anticoagulant (15 μL 10% K2 EDTA). Plasma was separated from blood by centrifugation at ~3300 rpm for 10 min at 4°C. HISHS‐2001 concentrations were estimated using liquid chromatography with tandem mass spectrometry.

T1 sequence (P43220 24-463): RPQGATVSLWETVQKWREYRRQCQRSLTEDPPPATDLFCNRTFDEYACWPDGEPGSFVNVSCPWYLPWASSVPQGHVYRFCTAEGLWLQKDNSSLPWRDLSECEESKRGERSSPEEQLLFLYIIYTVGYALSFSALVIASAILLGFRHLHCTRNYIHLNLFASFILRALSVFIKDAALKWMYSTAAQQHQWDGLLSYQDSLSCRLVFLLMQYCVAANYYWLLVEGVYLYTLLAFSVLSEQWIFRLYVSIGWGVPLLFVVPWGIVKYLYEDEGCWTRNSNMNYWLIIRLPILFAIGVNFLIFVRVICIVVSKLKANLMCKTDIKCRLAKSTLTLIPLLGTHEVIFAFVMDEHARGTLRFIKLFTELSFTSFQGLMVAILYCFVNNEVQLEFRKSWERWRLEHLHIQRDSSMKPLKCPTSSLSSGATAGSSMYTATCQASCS

Row | Compound | cAMP potency (pEC50) at the GLP-1R (human GLP-1R [1]) | calculated Kd at GLP-1R (human GLP-1R [2]) | Tmax (in vivo) [h] | half-life (in vivo) [h] | stability in the circulation (in vivo)
1 | CC[C@H](C)[C@H](NC(=O)[C@H](CC(C)C)NC(=O)[C@H](Cc1c[nH]c2ccccc12)NC(=O)[C@H](CCC(N)=O)NC(=O)[C@@H](NC(=O)[C@H](Cc1ccccc1)NC(=O)[C@H](C)NC(=O)[C@H](CCCCNC(=O)COCCOCCNC(=O)C(C)(C)NC(=O)CC[C@H](NC(=O)CCCCCCCCCCCCCCCCCCC(=O)O)C(=O)O)NC(=O)[C@H](CCC(N)=O)NC(=O)[C@H](C)NC(=O)[C@@H](NC(=O)[C@H](CCCCN)NC(=O)[C@H](CC(=O)O)NC(=O)[C@H](CC(C)C)NC(=O)C(C)(C)NC(=O)[C@@H](NC(=O)[C@H](CO)NC(=O)[C@H](Cc1ccc(O)cc1)NC(=O)[C@H](CC(=O)O)NC(=O)[C@H](CO)NC(=O)[C@@H](NC(=O)[C@H](Cc1ccccc1)NC(=O)[C@@H](NC(=O)CNC(=O)[C@H](CCC(=O)O)NC(=O)C(C)(C)NC(=O)[C@@H](N)Cc1ccc(O)cc1)[C@@H](C)O)[C@@H](C)O)[C@@H](C)CC)[C@@H](C)CC)C(C)C)C(=O)N[C@@H](C)C(=O)NCC(=O)NCC(=O)N1CCC[C@H]1C(=O)N[C@@H](CO)C(=O)N[C@@H](CO)C(=O)NCC(=O)N[C@@H](C)C(=O)N1CCC[C@H]1C(=O)N1CCC[C@H]1C(=O)N1CCC[C@H]1C(=O)N[C@@H](CO)C(N)=O [HISHS-2001] | significantly reduced potency | also lower | 8 | 10.1 | similar
2 | CC[C@H](C)[C@H](NC(=O)[C@H](CC(C)C)NC(=O)[C@H](Cc1c[nH]c2ccccc12)NC(=O)[C@H](CCC(N)=O)NC(=O)[C@@H](NC(=O)[C@H](Cc1ccccc1)NC(=O)[C@H](C)NC(=O)[C@H](CCCCNC(=O)COCCOCCNC(=O)COCCOCCNC(=O)CC[C@H](NC(=O)CCCCCCCCCCCCCCCCCCC(=O)O)C(=O)O)NC(=O)[C@H](CCC(N)=O)NC(=O)[C@H](C)NC(=O)[C@@H](NC(=O)[C@H](CCCCN)NC(=O)[C@H](CC(=O)O)NC(=O)[C@H](CC(C)C)NC(=O)C(C)(C)NC(=O)[C@@H](NC(=O)[C@H](CO)NC(=O)[C@H](Cc1ccc(O)cc1)NC(=O)[C@H](CC(=O)O)NC(=O)[C@H](CO)NC(=O)[C@@H](NC(=O)[C@H](Cc1ccccc1)NC(=O)[C@@H](NC(=O)CNC(=O)[C@H](CCC(=O)O)NC(=O)C(C)(C)NC(=O)[C@@H](N)Cc1ccc(O)cc1)[C@@H](C)O)[C@@H](C)O)[C@@H](C)CC)[C@@H](C)CC)C(C)C)C(=O)N[C@@H](C)C(=O)NCC(=O)NCC(=O)N1CCC[C@H]1C(=O)N[C@@H](CO)C(=O)N[C@@H](CO)C(=O)NCC(=O)N[C@@H](C)C(=O)N1CCC[C@H]1C(=O)N1CCC[C@H]1C(=O)N1CCC[C@H]1C(=O)N[C@@H](CO)C(N)=O [tirzepatide, reference compound] |  |  | 8 | 8.78 | similar
